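Cells were grown in 96-well plates and exposed to each compound for 48 hours at five concentrations; endpoints were interpolated linearly between bracketing concentrations, or set to the highest concentration if not reached. GI50: concentration for 50% inhibition of growth.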 Activity calls are given as the source filed them. No stated cut-off is given here; in the data, active = GI50 up to about 1.1 µM and inactive = higher.
Experiments:
Experiment in all cases: growth of human tumour cells (NCI), 48 h
[1] = system: U-251
[2] = system: T47D
[3] = system: UACC-62
[4] = system: MDA-N
[5] = system: RPMI-8226
[6] = system: COLO 205
[7] = system: NCI/ADR-RES
[8] = system: HCC 2998
[9] = system: DU-145
[10] = system: BT-549
[11] = system: UO-31
[12] = system: EKVX
[13] = system: A549
[14] = system: SF-268
[15] = system: LOX IMVI
[16] = system: OVCAR-4
[17] = system: PC-3
[18] = system: SK-OV-3
[19] = system: ACHN

Measured: GI50

Cc1ccc(-c2nc(-c3cnccn3)n(C3OC(CO)C(O)C(O)C3O)n2)cc1 (configuration not stated)
inactive: [1] > 100 µM | [2] > 100 µM | [3] > 100 µM | [4] > 100 µM | [5] > 100 µM | [6] > 100 µM | [7] > 100 µM | [8] > 100 µM | [9] > 100 µM | [10] > 100 µM | [11] > 100 µM | [12] > 100 µM | [13] > 100 µM | [14] > 100 µM | [15] > 100 µM | [16] > 100 µM | [17] > 100 µM

CCCCc1c(O)nc(Nc2nc3ccccc3[nH]2)[nH]c1=O
inactive: [18] > 100 µM | [1] 69.7 µM | [2] > 100 µM | [3] > 100 µM | [19] > 100 µM | [4] > 100 µM | [5] > 100 µM | [6] > 100 µM | [7] > 100 µM | [9] > 100 µM | [10] > 100 µM | [12] > 100 µM | [13] > 100 µM | [14] 98.9 µM | [15] > 100 µM | [16] > 100 µM | [17] > 100 µM

C#CCn1c(=O)c(C)cn(/C(=C\C(=O)OCC)C(=O)OCC)c1=O
inactive: [18] 28.6 µM | [1] 8.11 µM | [2] 2.65 µM | [3] 10.1 µM | [19] 1.69 µM | [4] 7.5 µM | [5] 2.8 µM | [6] 1.17 µM | [7] 3.86 µM | [9] 16.1 µM | [10] 9.71 µM | [11] 12.7 µM | [12] 6.43 µM | [13] 20 µM | [14] 16.1 µM | [15] 11.1 µM | [16] 2.69 µM | [17] 13.5 µM

CSCSSC
inactive: [18] 74.6 µM | [2] > 100 µM | [3] 61.7 µM | [19] > 100 µM | [4] > 93.3 µM | [5] 56.5 µM | [6] > 100 µM | [7] > 100 µM | [8] > 100 µM | [9] > 100 µM | [10] > 100 µM | [11] > 100 µM | [12] > 100 µM | [13] > 100 µM | [14] > 100 µM | [15] 17.7 µM | [17] > 80 µM

Cn1c2ccccc2c2c3c(c4c5ccccc5n(C)c4c21)C(=O)N(Cc1ccccc1)C3=O
inactive: [18] > 100 µM | [1] > 100 µM | [2] > 100 µM | [3] > 100 µM | [19] > 100 µM | [4] > 100 µM | [5] > 100 µM | [6] > 100 µM | [7] > 100 µM | [8] > 100 µM | [9] > 100 µM | [10] > 100 µM | [11] > 100 µM | [12] > 100 µM | [13] 90.2 µM | [15] > 100 µM | [16] > 100 µM | [17] > 100 µM

Cc1cc(S(=O)(=O)N/C(=N/N)NCCc2ccccc2)c(S)cc1Cl
inactive: [18] 23.3 µM | [1] 16.6 µM | [2] 18.1 µM | [3] 18.1 µM | [4] > 10 µM | [5] 32.7 µM | [6] 49.3 µM | [7] 22.9 µM | [8] 23.2 µM | [9] 18.5 µM | [10] 15.4 µM | [11] 27.6 µM | [12] 34.8 µM | [13] 36.1 µM | [14] 28.7 µM | [15] 29.6 µM | [16] 22.9 µM | [17] 30.1 µM

Cc1cc(C)n(C2=NS(=O)(=O)c3ccccc3N2C)n1
inactive: [18] > 100 µM | [1] > 100 µM | [2] > 100 µM | [3] > 100 µM | [19] > 100 µM | [4] > 100 µM | [6] > 100 µM | [7] > 100 µM | [8] > 100 µM | [9] > 100 µM | [10] > 100 µM | [11] > 100 µM | [12] > 100 µM | [13] > 100 µM | [14] > 100 µM | [15] > 100 µM | [16] > 100 µM | [17] > 100 µM

COc1ccc(C(=O)C(Br)C(Br)C(=O)O)cc1 (configuration not stated)
inactive: [18] 33.7 µM | [1] 35.3 µM | [2] 33.1 µM | [3] 47.9 µM | [19] 44.2 µM | [4] 38.1 µM | [5] 20.4 µM | [6] 21.9 µM | [7] 30.1 µM | [9] 80.2 µM | [10] 26.5 µM | [12] 53.6 µM | [13] 66.5 µM | [14] 32.8 µM | [15] 21 µM | [16] 53 µM | [17] 56.5 µM

Clc1ccc(NCc2nnc(COc3ccc(OCc4nnc(CNc5ccc(Cl)cc5)o4)c(Cl)c3)o2)cc1
inactive: [1] 39.3 µM | [2] > 100 µM | [3] 4.66 µM | [19] 38.1 µM | [4] 20.4 µM | [5] 9.51 µM | [6] 10.9 µM | [7] 5.68 µM | [8] > 100 µM | [9] > 100 µM | [10] 22.3 µM | [11] 26.4 µM | [12] 22.8 µM | [13] 49 µM | [14] 33.7 µM | [15] 20.3 µM | [17] 24 µM

Cc1ccc(-c2cc(-c3ccc(Cl)cc3)nc(/N=C3\C(=O)N(CN4CCCCC4)c4ccc(Cl)cc43)n2)cc1
inactive: [18] 31.8 µM | [1] 24 µM | [2] 29.9 µM | [3] 23 µM | [19] 29.6 µM | [4] 21.3 µM | [6] 25.2 µM | [7] 22.1 µM | [8] 14.9 µM | [9] 37.5 µM | [10] 22.4 µM | [12] 77.8 µM | [13] 16.4 µM | [14] 17.9 µM | [15] 23.3 µM | [16] 31.5 µM | [17] 34 µM

O=C(O)c1ccc(OCc2ccccc2)c(Cl)c1
inactive: [18] > 100 µM | [1] > 100 µM | [2] > 100 µM | [3] > 100 µM | [19] > 100 µM | [4] > 100 µM | [5] > 100 µM | [6] > 100 µM | [7] > 100 µM | [9] > 100 µM | [10] > 100 µM | [11] > 100 µM | [12] > 100 µM | [13] > 100 µM | [14] > 100 µM | [15] > 100 µM | [16] 14 µM | [17] > 100 µM

Reference: ChEMBL document CHEMBL1201862, “PubChem BioAssay data set” (2004)
